From patent US20090221559A1 (priority 2005, published 2009)
Read-outs that look alike come from different tables or passages of the source.

Key:
[1] = biological target: T1, HCV NS5B polymerase (His-tagged, C-terminal 21 amino acid deleted NS5B, HC-J4) (Hepatitis C virus genotype 1b, UniProt O92972); assay: NS5b polymerase assay (biochemical RdRp assay, 3H-GTP incorporation, SPA beads); design: species or system HCV genotype 1b
T1 construct: The cDNA encoding NS5B amino acid 1-570 (HC-J4, genotype 1b); His tag (His6, from pET-21b) (C); made in house; host or cells: E. coli BL21 (DE3)
T1 sequence (O92972 2417-3000, looked up, stated change not applied): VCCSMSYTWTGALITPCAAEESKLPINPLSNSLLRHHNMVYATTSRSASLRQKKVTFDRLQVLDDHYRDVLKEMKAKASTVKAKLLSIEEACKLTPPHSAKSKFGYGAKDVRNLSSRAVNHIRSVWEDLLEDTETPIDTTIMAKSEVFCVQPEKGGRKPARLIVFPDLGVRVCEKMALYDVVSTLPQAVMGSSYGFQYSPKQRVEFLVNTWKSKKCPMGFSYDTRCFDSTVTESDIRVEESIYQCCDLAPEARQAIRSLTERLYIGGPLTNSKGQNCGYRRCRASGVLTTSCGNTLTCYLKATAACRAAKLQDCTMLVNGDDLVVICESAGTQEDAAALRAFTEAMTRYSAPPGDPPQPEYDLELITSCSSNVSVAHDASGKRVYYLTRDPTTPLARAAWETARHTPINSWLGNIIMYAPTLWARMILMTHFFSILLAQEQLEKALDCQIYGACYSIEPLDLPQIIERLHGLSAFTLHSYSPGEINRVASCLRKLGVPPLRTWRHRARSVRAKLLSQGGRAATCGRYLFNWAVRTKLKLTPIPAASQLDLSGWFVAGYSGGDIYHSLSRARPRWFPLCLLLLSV
Method in brief: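 His-tagged C-terminal-21-aa-deleted NS5B (genotype 1b, HC-J4) at 200 nM was preincubated 15 min at RT with compound on 5′-biotinylated oligo(rG13)/poly(rC) template/primer before NTPs. Reaction with 600 nM GTP plus 0.1 μCi 3H-GTP and 5 mM MgCl2 in Tris pH 7.5 ran 2 h at 25 °C. Stopped with EDTA/SPA beads for incorporation counting.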

[2] = tested on: HCV replicon RNA replication in Huh-7 luc/neo (Huh-Luc) cells; assay: HCV replicon assay (stable replicon cell reporter assay, luciferase read-out); type: cell-based, HCV type 1b
Method in brief: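 Huh-7 cells stably carry a bicistronic HCV 1b NS3-NS5B subgenomic replicon with firefly luciferase and neo markers. Cells were plated with compound across a concentration range and incubated three days. Replication was measured as luciferase activity to give dose-response curves.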

[3] = NS5B Polymerase Assay IC50, 200 nM enzyme, 3H-GTP incorporation, 2 h at 25° C.
[4] = Hepatitis C virus, Huh-7, 72 h, read-out: Replicon Assay EC50, Huh-Luc cells, three days incubation, luciferase activity
[5] = NS5B Polymerase Assay IC50 (μM)
[6] = Hepatitis C virus, Huh-7, 72 h, read-out: Replicon Assay EC50 (μM), Huh-Luc cells, incubation of three days, luciferase activity
[7] = 200 nM enzyme, 3H-GTP incorporation, 2 h at 25° C., read-out: NS5B Polymerase Assay IC50
[8] = Huh-Luc cells, three days incubation, luciferase activity, read-out: Replicon Assay EC50

| SMILES | IC50 [1, 3] [µM] | EC50 [2, 4] [µM] | IC50 [1, 5] [µM] | EC50 [2, 6] [µM] | further results |
| --- | --- | --- | --- | --- | --- |
| CC1(C)CC(=O)C2=C(C1)Nc1ccccc1N(C(=O)C1CC1)C2c1ccc(Cl)cc1Cl (stereo not drawn) [compound 53] | 19.7 | > 32 | – | – | – |
| CC1(C)CC(=O)C2=C(C1)Nc1ccccc1NC2c1ccc(Cl)cc1Cl (stereo not drawn) [compound 423, 11-(2,4-dichlorophenyl)-2,3,4,5,10,11-hexahydro-3,3-dimethyl-1H-dibenzo[b,e][1,4]diazepin-1-one] | – | – | 37.9 | 26.4 | – |
| COc1ccc(OC)c(C2Nc3ccccc3NC3=C2C(=O)CC(c2ccc(OC)c(OC)c2)C3)c1 (stereo not drawn) [compound 371] | – | – | > 42.7 | 3.74 | – |
| CC1(C)CC(=O)C2=C(C1)Nc1ccccc1NC2c1cccc(OC(=O)c2ccc(Cl)cc2)c1 (stereo not drawn) [compound 431, 11-[3-(4-Chlorobenzoyloxy)phenyl]-3,3-dimethyl-2,3,4,5,10,11-hexahydro-dibenzo[b,e][1,4]diazepin-1-one] | – | – | 82.9 | > 100 | – |
| CC1(C)CC(=O)C2=C(C1)Nc1ccccc1N(C(=O)C(F)(F)F)C2c1cccs1 (stereo not drawn) [compound 267] | > 42.7 | 9.39 | – | – | – |
| COc1ccc(C2CC(=O)C3=C(C2)Nc2ccccc2NC3c2ccc(C(F)(F)F)cc2)cc1 (stereo not drawn) [compound 329] | – | – | > 33.3 | 11.1 | – |
| O=C1CC(c2ccccc2)CC2=C1C(c1ccccc1C(F)(F)F)Nc1ccccc1N2 (stereo not drawn) [compound 407] | – | – | > 33.3 | 15.6 | – |
| CC(=O)N1c2ccccc2NC2=C(C(=O)CC(C)(C)C2)C1c1c(Cl)cccc1Cl (stereo not drawn) [compound 50] | > 42.7 | > 32 | – | – | – |
| CC(C)C(=O)N1c2ccccc2NC2=C(C(=O)CC(C)(C)C2)C1c1ccc(Br)s1 (stereo not drawn) [compound 262] | > 42.7 | 5.54 | – | – | – |
| COc1ccc(C2CC(=O)C3=C(C2)Nc2ccccc2N(C(=O)c2ccccc2)C3c2ccc(Cl)cc2)cc1OC (mixture of isomers) [compound 218] | – | – | – | – | IC50 [1, 7]: > 33.3 µM; EC50 [2, 8]: 14.8 µM |
| CC1(C)CC(=O)C2=C(C1)Nc1ccccc1NC2c1cccc(OCc2ccccc2)c1 (stereo not drawn) [compound 437, 11-(3-benzyloxyphenyl)-3,3-dimethyl-2,3,4,5,10,11-hexahydro-1H-dibenzo[b,e][1,4]diazepin-1-one] | – | – | 32.9 | 6.35 | – |
| CC1(C)CC(=O)C2=C(C1)Nc1ccccc1NC2c1ccc(OCc2ccccc2)c(Cl)c1 (stereo not drawn) [compound 439, 11-[4-benzyloxy-3-chlorophenyl]-3,3-dimethyl-2,3,4,5,10,11-hexahydro-1H-dibenzo[b,e][1,4]diazepin-1-one] | – | – | 3.63 | 4.33 | – |
| CC1(C)CC(=O)C2=C(C1)Nc1ccccc1N(C(=O)C1CC1)C2c1cccs1 (stereo not drawn) [compound 252] | > 42.7 | 4.76 | – | – | – |
| CC(=O)N1c2ccccc2NC2=C(C(=O)CC(C)(C)C2)C1c1c(Cl)cc(OCc2ccccc2)cc1Cl (stereo not drawn) [compound 150, 10-acetyl-11-(4-benzyloxy-2,6-dichlorophenyl)-3,3-dimethyl-2,3,4,5,10,11-hexahydro-1H-dibenzo[b,e][1,4]diazepin-1-one] | > 133 | 1.69 | – | – | – |
| COc1ccc(OC)c(C2C3=C(CC(C)(C)CC3=O)Nc3ccccc3N2C(=O)c2ccccc2)c1 (stereo not drawn) [compound 72] | > 42.7 | 23.6 | – | – | – |
| COc1cc2c(cc1OC)NC(c1ccc(Cl)cc1Cl)C1=C(CC(C)(C)CC1=O)N2 (stereo not drawn) [compound 467, 7,8-dimethoxy-11-(2,4-dichlorophenyl)-3,3-dimethyl-2,3,4,5,10,11-hexahydro-1H-dibenzo[b,e][1,4]diazepin-1-one] | – | – | > 133 | 30 | – |
| CCCCOc1ccc(C2C3=C(CC(C)(C)CC3=O)Nc3ccccc3N2C(=O)c2ccccc2)cc1 (stereo not drawn) [compound 91] | > 42.7 | 8.14 | – | – | – |
| O=C1CC(c2ccccc2OCc2ccccc2)CC2=C1C(c1cccc(OCc3ccccc3)c1)Nc1ccccc1N2 (single isomer, unassigned) [compound 420, 3-(2-Benzyloxyphenyl)-11-(3-benzyloxyphenyl)-2,3,4,5,10,11-hexahydro-dibenzo[b,e][1,4]diazepin-1-one] | – | – | > 42.7 | 3.23 | – |

| SMILES | IC50 [1, 3] [µM] | EC50 [2, 4] [µM] | IC50 [1, 5] [µM] | EC50 [2, 6] [µM] | further results |
| --- | --- | --- | --- | --- | --- |
| COc1ccccc1C1C2=C(CC(C)(C)CC2=O)Nc2ccccc2N1C(C)=O (stereo not drawn) [compound 128] | > 42.7 | > 32 | – | – | – |
| COc1ccc(C2C3=C(CC(c4ccc(C)cc4)CC3=O)Nc3ccccc3N2C(=O)c2ccccc2)cc1OC (mixture of isomers) [compound 197] | – | – | – | – | IC50 [1, 7]: > 33.3 µM; EC50 [2, 8]: 8.97 µM |
| COc1ccc(C2CC(=O)C3=C(C2)Nc2ccccc2NC3c2ccccc2OC)cc1OC (stereo not drawn) [compound 369] | – | – | > 42.7 | 10 | – |
| CC(C)C(=O)N1c2ccccc2NC2=C(C(=O)CC(C)(C)C2)C1c1ccc(C(F)(F)F)cc1 (stereo not drawn) [compound 5] | > 42.7 | 19.9 | – | – | – |
| COc1cccc(C2Nc3ccccc3NC3=C2C(=O)CC(c2ccc(Cl)cc2)C3)c1 (stereo not drawn) [compound 360] | – | – | > 42.7 | 11.2 | – |
| CC(=O)N1c2ccccc2NC2=C(C(=O)CC(C)(C)C2)[C@@H]1c1ccc(OCc2ccccc2)cc1Cl (single isomer, unassigned) [compound 306] | 83.1 | 3.92 | – | – | – |
| Cc1ccc(C2C3=C(CC(C)(C)CC3=O)Nc3ccccc3N2C(=O)Cc2ccccc2)o1 (stereo not drawn) [compound 271] | > 33.3 | 22.9 | – | – | – |
| CCN(CC)c1ccc(C2C3=C(CC(C)(C)CC3=O)Nc3ccccc3N2C(C)=O)cc1 (stereo not drawn) [compound 131] | > 42.7 | > 32 | – | – | – |
| COc1ccc(C2C3=C(CC(C)(C)CC3=O)Nc3ccccc3N2C(C)=O)c(OC)c1 (stereo not drawn) [compound 132] | > 42.7 | 12.8 | – | – | – |
| CCCCCC(=O)N1c2ccccc2NC2=C(C(=O)CC(C)(C)C2)C1c1ccc(OC(C)C)cc1 (stereo not drawn) [compound 83] | > 42.7 | 4.16 | – | – | – |
| CCN(CC)c1ccc(C2C3=C(CC(C)(C)CC3=O)Nc3ccccc3N2C(=O)C(F)(F)F)cc1 (stereo not drawn) [compound 109] | > 42.7 | > 32 | – | – | – |
| COc1ccc(C2CC(=O)C3=C(C2)Nc2ccccc2NC3c2cc(Br)c(O)c(OC)c2)cc1OC (stereo not drawn) [compound 397] | – | – | > 42.7 | 6.13 | – |
| CC(=O)N1c2ccccc2NC2=C(C(=O)CC(C)(C)C2)C1c1cccc(OCc2ccccc2)c1 (stereo not drawn) [compound 136, 10-acetyl-11-(3-benzyloxyphenyl)-3,3-dimethyl-2,3,4,5,10,11-hexahydro-1H-dibenzo[b,e][1,4]diazepin-1-one] | > 133 | 9.51 | – | – | – |
| COc1ccc(C2CC(=O)C3=C(C2)Nc2ccccc2NC3c2ccc(Cl)cc2)cc1OC (stereo not drawn) [compound 415] | – | – | > 33.3 | 14.7 | – |
| CCCCCC(=O)N1c2ccccc2NC2=C(C(=O)CC(c3ccco3)C2)C1c1ccc(Cl)cc1 (stereo not drawn) [compound 289] | > 33.3 | 15.4 | – | – | – |
| CC1(C)CC(=O)C2=C(C1)Nc1ccccc1N(C(=O)Cc1ccccc1)C2c1c(Cl)cccc1Cl (stereo not drawn) [compound 16] | > 42.7 | 10.6 | – | – | – |
| CC(=O)N1c2ccccc2NC2=C(C(=O)CC(C)(C)C2)C1CC1CC=C(C)C1(C)C (stereo not drawn) [compound 246] | > 42.7 | 1.88 | – | – | – |
| COc1ccc(C2C3=C(CC(C)(C)CC3=O)Nc3ccccc3N2C(=O)CSc2nc3ccccc3s2)cc1 (stereo not drawn) [compound 21] | > 42.7 | 14.2 | – | – | – |
